Results from US4788209A, “Antifungal 2-anilinothiazolines” (Merrell Dow Pharmaceuticals Inc., priority 1987, dated 1988).
Values after ≈ are worked out from the molar mass of the structure shown. Read-outs that look alike come from different tables or passages of the source.

Tests used:
Candida albicans [1] = test: Single dose therapy of rat vaginitis (vaginal candidiasis) induced by two challenge levels; format: in vivo; details: 0.2 ml of 10% solution intravaginally, 24 hours after treatment
Experimental: To compare the activity of N-(4-hexylphenyl)-4,5-dihydro-2-thiazolamine with that of the well established antifungal agents miconazole and Clotrimazole, vaginal candidiasis was induced in rats.
Groups of 6 female, ovariectomized rats, 180-200 gram weight, were pretreated for 2 successive days with 0.5 mg of progesterone and 0.5 mg of estradiol administered subcutaneously to induce oestrus. Forty-eight hours later rats were infected intravaginally on 2 successive days with Candida albicans cells. Challenge levels of 1×10^7 and 1×10^6 cells were employed. Seventy-two hours after infection, the rats were treated topically (intravaginally) with 0.2 ml of a 10% solution of test compound in a vehicle consisting of the following: cetyl alcohol, 3.5 gm; glycerol monostearate polyethyleneglycol 100, 4.0 gm; diglycol stearate, 3.0 gm; polyethyleneglycol 400, 18.75 gm; and purified water, 18.75 gm.
Twenty-four hours after treatment, vaginal washings were collected, diluted and mixed with Mycosel agar in petri dishes. The dishes were incubated for 48 hours and colonies were counted to determine the surviving number of yeast cells per vaginal washing.

Candida albicans [2] = test: Minimal inhibitory concentration against yeasts (Mycophil agar, Steers-Foltz apparatus); format: cell-based; details: 24 hours at 37° C.
Experimental: (§1) The compounds of the present invention show activity against pathogenic fungi in vitro and in vivo. The activity of N-(4-hexylphenyl)-4,5-dihydro-2-thiazolamine against various yeast fungi commonly responsible for diseases of humans and animals is illustrated in Table I.
(§2) The compound was prepared in 20 ml aliquots of Mycophil agar at concentrations of 1.5 μM to 250 μM. The agar surfaces were innoculated with approximately 1×10^5 yeast cells/ml using a Steers-Foltz apparatus. The plates were incubated for 24 hours at 37° C. and examined for yeast growth. The minimal inhibitory concentration (MIC) is reported as the lowest concentration of compound that inhibited growth.

Candida parapsilosis = test: as above; format: cell-based; details: Lodderomyces parapsilosis; 24 hours at 37° C.
Experimental: as §1, §2

Candida pseudotropicalis = test: as above; format: cell-based; details: Kluyveromyces marxianus; 24 hours at 37° C.
Experimental: as §1, §2

Candida tropicalis = test: as above; format: cell-based; details: 24 hours at 37° C.
Experimental: as §1, §2

Torulopsis glabrata = test: as above; format: cell-based; details: Nakaseomyces glabratus; 24 hours at 37° C.
Experimental: as §1, §2

Compound | % Killed (Candida albicans [1]; challenge 1 × 10^6 cells) [%] | Cells/ml Lavage (Candida albicans [1]; challenge 1 × 10^6 cells) | % Killed (Candida albicans [1]; challenge 1 × 10^7 cells) [%] | Cells/ml Lavage (Candida albicans [1]; challenge 1 × 10^7 cells) | MIC (Candida albicans [2]; Candida albicans, strain 1, read-out: MIC) [µg/mL] | MIC (Candida albicans [2]; strain 8) [µg/mL] | MIC (Candida albicans [2]; strain 10) [µg/mL] | MIC (Candida albicans [2]; strain 14) [µg/mL] | MIC (Candida albicans [2]; strain 16) [µg/mL] | MIC (Candida parapsilosis) [µg/mL] | MIC (Candida pseudotropicalis) [µg/mL] | MIC (Candida tropicalis; Candida tropicalis, strain 4, read-out: MIC) [µg/mL] | MIC (Candida tropicalis; strain 20) [µg/mL] | MIC (Torulopsis glabrata) [µg/mL]
Clc1ccc(COC(Cn2ccnc2)c2ccc(Cl)cc2Cl)c(Cl)c1 (stereo not shown) [Miconazole, miconazole] | 88 | 7 × 10^3 Cells/ml | 90 | 2 × 10^4 Cells/ml |  |  |  |  |  |  |  |  |  | 
CCCCCCc1ccc(NC2=NCCS2)cc1 [N-(4-Hexylphenyl)-4,5-dihydro-2-thiazolamine] | 97 | 2 × 10^3 Cells/ml | 98 | 5 × 10^3 Cells/ml | 8 (≈ 30.5 µM) | 8 (≈ 30.5 µM) | 8 (≈ 30.5 µM) | 8 (≈ 30.5 µM) | 8 (≈ 30.5 µM) | 4 (≈ 15.2 µM) | 2 (≈ 7.62 µM) | 8 (≈ 30.5 µM) | 8 (≈ 30.5 µM) | 8 (≈ 30.5 µM)
Clc1ccccc1C(c1ccccc1)(c1ccccc1)n1ccnc1 [Clotrimazole] | 83 | 1 × 10^4 Cells/ml | 75 | 5 × 10^4 Cells/ml |  |  |  |  |  |  |  |  |  | 
